Test results published in patent publication US20090042863A1, “Therapeutic Agent for Diabetes” (Takeda Pharmaceutical Company Limited, priority 2005, published 2009).
Counter-ions that a name gives are not always drawn.

How the values were obtained:
Type in all cases: in vivo
db/db mouse [1] = experiment: Pancreatic insulin content in db/db mice, Experimental Example 2 (voglibose, compound A); details: male, 6-week-old, powder diet with voglibose 0.001 (w/w)% and/or compound A 0.03 (w/w)% free form for 27 consecutive days, pancreas isolated at day 29, mean ± SD, n=6
Method: (§1) First, the mouse pancreas was homogenated in its 10 times weight of 74% ethanol (containing 0.15 mM hydrochloric acid). The obtained homogenate solution was left standing overnight under the shading conditions at 4° C., and centrifuged at 15000 rpm for 5 min. The obtained supernatant was appropriately diluted with PBS(−) (phosphate-buffered saline) containing 0.1% BSA (bovine serum albumin). The insulin content of the diluted solution was measured by radioimmunoassay (trade name: RAT INSULIN RIA KIT, manufactured by RINCO Research, U.S.A.), and the insulin content per pancreatic tissue weight was calculated. […]
In the above-mentioned Groups A-D, pancreas was isolated from the mice at day 29 from the start of the powder feed administration, and the pancreatic insulin content was measured.
(§2) The insulin content per pancreatic tissue weight was calculated in the same manner as in Experimental Example 1. […]

db/db mouse [2] = experiment: Pancreatic insulin content in db/db mice, Experimental Example 3 (pioglitazone, compound B); details: male, 6-week-old, powder diet with pioglitazone hydrochloride 0.0075 (w/w)% as pioglitazone and/or compound B 0.03 (w/w)% free form for 26 consecutive days, pancreas isolated at day 28, mean ± SD, n=7
Method: as §1
(§3) In the above-mentioned Groups A-D, pancreas was isolated from the mice at day 28 from the start of the powder feed administration, and the pancreatic insulin content was measured.
as §2

db/db mouse [3] = experiment: Pancreatic insulin content in db/db mice, Experimental Example 4 (pioglitazone, compound C); details: male, 6-week-old, powder diet with pioglitazone hydrochloride 0.0075 (w/w)% as pioglitazone and/or compound C 0.1 (w/w)% free form for 26 consecutive days, pancreas isolated at day 28, mean ± SD, n=7
Method: as §1, §3, §2

Row | Structure (SMILES) | Pancreatic insulin content (db/db mouse [1]) | Pancreatic insulin content (db/db mouse [2]) | Pancreatic insulin content (db/db mouse [3])
1 | Cn1c(=O)cc(N2CCC[C@@H](N)C2)n(Cc2ccccc2C#N)c1=O.O=C(O)c1ccccc1 [compound A, 2-[[6-[(3R)-3-amino-1-piperidinyl]-3,4-dihydro-3-methyl-2,4-dioxo-1(2H)-pyrimidinyl]methyl]benzonitrile benzoate] | 92.0 ± 37.0 ng/mg tissue |  | 
2 | Cn1c(=O)cc(N2CCC[C@@H](N)C2)n(Cc2cc(F)ccc2C#N)c1=O.O=C(O)CCC(=O)O [compound B, 2-[[6-[(3R)-3-amino-1-piperidinyl]-3,4-dihydro-3-methyl-2,4-dioxo-1(2H)-pyrimidinyl]methyl]-4-fluorobenzonitrile succinate] |  | 58.1 ± 17.0 ng/mg tissue | 
3 | N#Cc1ccccc1Cn1c(N2CCC[C@@H](N)C2)ncc(F)c1=O.O=C(O)C(O)C(O)C(=O)O [compound C, 2-[2-(3-(R)-aminopiperidin-1-yl)-5-fluoro-6-oxo-6H-pyrimidin-1-ylmethyl]benzonitrile tartrate] |  |  | 57.2 ± 17.8 ng/mg tissue
4 | CCc1ccc(CCOc2ccc(CC3SC(=O)NC3=O)cc2)nc1 (stereo not drawn) [pioglitazone, pioglitazone hydrochloride] |  | 74.8 ± 21.5 ng/mg tissue | 74.8 ± 21.5 ng/mg tissue
5 | OCC(CO)N[C@H]1C[C@](O)(CO)[C@@H](O)[C@H](O)[C@H]1O [voglibose] | 198.1 ± 169.8 ng/mg tissue |  | 
